Measurements from patent US12419886B2, “Parenteral formulations and uses thereof” (Eustralis Pharmaceuticals Limited, priority 2018, dated 2025).

Tests used:
[1] = Solubility of Compound (Ia) 2HCl in water (ethanol also assessed); assay type: physicochemical
Protocol: Ethanol was also assessed as part of this study.

[2] = Excipient compatibility, 14 days stability (HPLC assay and related substances); assay type: physicochemical; conditions: 25° C./60% RH and 40° C./75% RH
Protocol: The successful formulation characteristics of a solution are its solubility and stability. The solvent system chosen must also be able to solubilise the drug at the desired concentration and must provide an environment where the drug has sufficient chemical stability. This study is an initial comparison of 2 weeks stability with potential excipients, and the % degradation was assessed. The excipients assessed are those typically found in liquid and freeze dried formulations. Excipient compatibility was investigated by subjecting a series of mixes containing active and excipient to elevated temperature for a nominated period and monitoring any degradation.
The solutions that were soluble in Table 3 were also prepared using Kolliphor 400 mg/mL in water and with Tween 80 as a solubiliser. These solutions were placed on stability at 25° C./60% RH and 40° C./75% RH for 14 days. The formulations was assessed for assay and related substances after 14 days of storage. Refer to Table 4 and 5 for the results.

## Cc1ccccc1-c1cc(N2CCN(C)CC2)ncc1C(=O)N(C)Cc1cc(C(F)(F)F)cc(C(F)(F)F)c1 [Compound (Ia) 2HCl]
[1]; 5 mg/mL
  pH of solution in water: 2.39
[1]; 5 mg/mL (50 mg in 10 mL water)
  Result (solubility in water): Very soluble
[1]; 10 mg/mL
  pH of solution in water: 2.14
[1]; 10 mg/mL (100 mg in 10 mL water)
  Result (solubility in water): Very soluble
[1]; 15 mg/mL
  pH of solution in water: 2.02
[1]; 15 mg/mL (150 mg in 10 mL water)
  Result (solubility in water): Soluble
[1]; 20 mg/mL
  pH of solution in water: 1.87
[1]; 20 mg/mL (200 mg in 10 mL water)
  Result (solubility in water): Soluble
[1]; 25 mg/mL
  pH of solution in water: 1.81
[1]; 25 mg/mL (250 mg in 10 mL water)
  Result (solubility in water): Soluble
[1]; 30 mg/mL
  pH of solution in water: 1.75
[1]; 30 mg/mL (300 mg in 10 mL water)
  Result (solubility in water): Soluble
[1]; 35 mg/mL
  pH of solution in water: 1.72
[1]; 35 mg/mL (350 mg in 10 mL water)
  Result (solubility in water): Soluble
[1]; 40 mg/mL
  pH of solution in water: 1.66
[1]; 40 mg/mL (400 mg in 10 mL water)
  Result (solubility in water): Soluble
[1]; 45 mg/mL
  pH of solution in water: 1.54
[1]; 45 mg/mL (450 mg in 10 mL water)
  Result (solubility in water): Soluble
[1]; 50 mg/mL
  pH of solution in water: 1.52
[1]; 50 mg/mL (500 mg in 10 mL water)
  Result (solubility in water): Soluble
[1]; 50 mg/mL, sentence follows mention of ethanol
  Solubility: freely soluble
[2]
  Stability in a range of formulations (conclusion): quite stable
